Read-outs that look alike come from different tables or passages of the source.
What was measured:
HCT116 MTAP KO cells = experiment: Inhibitory activity against cell proliferation (CellTiter Glo, 6 days), HCT116 MTAP KO; assay type: cell-based; details: for IC50: Homo sapiens, HCT-116, 144 h, HCT116 MTAP KO cells, 6 days, CellTiter Glo, read-out: HCT116 MTAP KO IC50; for Selectivity HCT 116-WT/ HCT116 MTAP KO: ratio of IC50 HCT116-WT / HCT116 MTAP KO
Summary of the method: (§1)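 Viability is measured by CellTiter Glo luminescence on day 7, following a 6-day treatment with compounds serially diluted 4-fold over 8 points from 10000 nM. Both lines are plated at 250 cells per well and cultured overnight beforehand.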

PRMT5-MTA = PRMT5-MTA (Homo sapiens, UniProt O14744); experiment: Enzymatic inhibitory activity against PRMT5-MTA (AlphaScreen); assay type: biochemical
Summary of the method: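 PRMT5/[…] (1 nM) was preincubated for 30 min at room temperature with 1 µM […] and 2.5 µM SAM, then exposed to compound (10-point, 3-fold from 1000 nM) for 15 min at 23 °C. Histone H4 substrate (5 nM) was added and reacted for 45 min at 23 °C. Symmetric dimethyl-R3 H4 was detected by AlphaScreen and IC50 calculated.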

HCT116-WT cells = experiment: Inhibitory activity against cell proliferation (CellTiter Glo, 6 days), HCT116-WT; assay type: cell-based; details: 144 h, HCT116-WT cells, 6 days, CellTiter Glo; read-out: HCT116-WT IC50
Summary of the method: as §1

PRMT5-MTA, sequence (O14744 whole entry): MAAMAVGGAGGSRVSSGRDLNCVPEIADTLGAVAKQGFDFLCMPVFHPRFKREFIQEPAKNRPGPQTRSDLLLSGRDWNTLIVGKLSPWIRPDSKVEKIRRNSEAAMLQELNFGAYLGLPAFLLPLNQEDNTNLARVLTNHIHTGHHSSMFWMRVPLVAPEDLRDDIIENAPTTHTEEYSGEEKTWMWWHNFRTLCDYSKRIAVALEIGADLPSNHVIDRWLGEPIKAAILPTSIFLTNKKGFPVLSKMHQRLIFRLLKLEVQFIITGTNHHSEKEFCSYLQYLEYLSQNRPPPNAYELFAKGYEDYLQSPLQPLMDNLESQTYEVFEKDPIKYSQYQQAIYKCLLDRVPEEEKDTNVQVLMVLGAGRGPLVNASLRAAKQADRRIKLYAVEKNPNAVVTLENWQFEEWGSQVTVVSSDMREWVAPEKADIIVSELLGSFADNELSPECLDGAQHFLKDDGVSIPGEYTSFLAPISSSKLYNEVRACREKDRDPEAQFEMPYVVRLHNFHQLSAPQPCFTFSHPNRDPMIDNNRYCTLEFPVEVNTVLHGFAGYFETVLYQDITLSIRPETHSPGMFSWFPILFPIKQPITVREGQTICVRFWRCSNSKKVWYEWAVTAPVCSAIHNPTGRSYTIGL
PRMT5-MTA, sequence (Q9BQA1 whole entry partner): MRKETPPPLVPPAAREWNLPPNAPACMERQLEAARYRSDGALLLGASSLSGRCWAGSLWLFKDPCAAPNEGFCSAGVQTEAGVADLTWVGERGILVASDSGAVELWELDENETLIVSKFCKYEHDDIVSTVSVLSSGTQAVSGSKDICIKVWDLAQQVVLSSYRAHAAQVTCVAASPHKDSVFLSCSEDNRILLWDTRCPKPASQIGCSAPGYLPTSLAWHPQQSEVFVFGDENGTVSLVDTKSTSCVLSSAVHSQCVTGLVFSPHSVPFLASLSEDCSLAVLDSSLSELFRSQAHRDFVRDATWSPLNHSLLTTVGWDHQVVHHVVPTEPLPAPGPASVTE

SMILES | IC50 (HCT116 MTAP KO cells) [nM] | IC50 (PRMT5-MTA; read-out: IC50) [nM] | IC50 (HCT116-WT cells) [nM] | Selectivity HCT 116-WT/ HCT116 MTAP KO (HCT116 MTAP KO cells) | IC50 (PRMT5-MTA) [nM]
Cc1cc2nc(N)c3c(C)nn(C)c3c2cc1C(=O)N1CC(C)CN1c1ncccc1F (stereo not drawn) [Example 509, (4-amino-1,3,7-trimethyl-1H-pyrazolo[4,3-c]quinolin-8-yl)(2-(3-fluoropyridin-2-yl)-4-methylpyrazolidin-1-yl) methanone] | 443 | 4.3 | > 10000 | – | –
Cc1cc2nc(N)c3cnn(C)c3c2cc1C(=O)N1CC(CO)CN1c1ncccc1F (stereo not drawn) [Example 358, (4-amino-1,7-dimethyl-1H-pyrazolo[4,3-c]quinolin-8-yl)(2-(3-fluoropyridin-2-yl)-4-(hydroxymethyl)pyrazolidin-1-yl)methanone] | 303 | 6.7 | > 10000 | >33.00 | –
Cc1cc2nc(N)c3cnn(C)c3c2cc1C(=O)N1CCCCN1c1ccc(C(F)(F)F)cn1 [Example 343, (4-amino-1,7-dimethyl-1H-pyrazolo[4,3-c]quinolin-8-yl)(2-(5-(trifluoromethyl)pyridin-2-yl)tetrahydropyridazin-1 (2H)-yl) methanone] | 212 | 3.9 | 4860 | 22.90 | –
Cc1cc2nc(N)c3cnn(C)c3c2cc1C(=O)N1CC(C)CN1c1ncccc1F (stereo not drawn) [Example 328, (4-amino-1,7-dimethyl-1H-pyrazolo[4,3-c]quinolin-8-yl)(2-(3-fluoropyridin-2-yl)-4-methylpyrazolidin-1-yl)methanone] | 38 | 6.5 | 2340 | 61.63 | –
Cc1cc2nc(N)c3cnn(C)c3c2cc1C(=O)N1CC(C)CN1c1ccncc1F (stereo not drawn) [Example 379, (4-amino-1,7-dimethyl-1H-pyrazolo[4,3-c]quinolin-8-yl)(2-(3-fluoropyridin-4-yl)-4-methylpyrazolidin-1-yl)methanone] | 40 | 7.8 | 1820 | 45.38 | –
Cc1cc2nc(N)c3c(c2cc1C(=O)N1CC(C)CN1c1ncccc1F)COC3 (stereo not drawn) [Example 512, (4-amino-7-methyl-1,3-dihydrofuro[3,4-c]quinolin-8-yl)(2-(3-fluoropyridin-2-yl)-4-methylpyrazolidin-1-yl)methanone] | 259 | 5 | 5830 | 22.53 | –
[2H]C([2H])([2H])n1ncc2c(N)nc3cc(Cl)c(C(=O)N4CC(C)CN4c4ncccc4F)cc3c21 (stereo not drawn) [Compound 508, (4-amino-7-chloro-1-(methyl-D3)-1H-pyrazolo[4,3-c]quinolin-8-yl)(2-(3-fluoropyridin-2-yl)-4-methylpyrazolidin-1-yl)meth anone] | 114 | 16.6 | 2710 | 23.78 | –
Cn1ncc2c(N)nc3cc(Cl)c(C(=O)N4CC(F)(F)CN4c4cccc(F)c4F)cc3c21 [Example 461, (4-amino-7-chloro-1-methyl-1H-pyrazolo [4,3-c]quinolin-8-yl)(2-(2,3-difluorophenyl)-4,4-difluoropyrazolidin-1-yl)methanone] | 15 | 6.8 | 295 | 19.67 | –
C=C1CN(C(=O)c2cc3c(cc2Cl)nc(N)c2cnn(C)c23)N(c2ncc(F)cc2F)C1 [Example 432, (4-amino-7-chloro-1-methyl-1H-pyrazolo [4,3-c]quinolin-8-yl)(2-(3,5-2 fluoropyridin-2-yl)-4-methylenepyrazolidin-1-yl)methanone] | 16 | 4.5 | 657 | 41.06 | –
C=Cc1ccc(CN(C(=O)c2ccc3nc(N)c(C)cc3c2)N(C)c2ncccn2)nc1 [Example 188, 2-amino-N',3-dimethyl-N'-(pyrimidin-2-yl)-N-((5-vinylpyridin-2-yl)methyl)quinoline-6-carbohydrazide] | 126 | 2.7 | 2830 | 22.44 | –
Cc1cc2nc(N)c3cnn(C)c3c2cc1C(=O)N1CC(C)CN1c1ncc(C2CC2)cc1F (stereo not drawn) [Example 489] | 54 | – | 1410 | 26.04 | 4.8
Cc1cc2nc(N)c3cnn(C)c3c2cc1C(=O)N1CC(C)CN1c1ccc(F)cn1 (stereo not drawn) [Example 346, (4-amino-1,7-dimethyl-1H-pyrazolo[4,3-c]quinolin-8-yl)(2-(5-fluoropyridin-2-yl)-4-methylpyrazolidin-1-yl)methanone] | 53 | 3.6 | 2190 | 41.25 | –
Cn1ncc2c(N)nc3cc(Cl)c(C(=O)N4CC(F)(F)CN4c4ncc(Cl)cc4F)cc3c21 [Example 460, (4-amino-7-chloro-1-methyl-1H-pyrazolo [4,3-c]quinolin-8-yl)(2-(5-chloro-3-fluoropyridin-2-yl)-4,4-difluoropyrazolidin-1-yl)methanone] | 18 | 8.2 | 479 | 26.61 | –
Cc1cc2nc(N)c3cnn(C)c3c2cc1C(=O)N1CC(C)CN1c1ccccn1 (stereo not drawn) [Example 368, (4-amino-1,7-dimethyl-1H-pyrazolo[4,3-c]quinolin-8-yl)(4-methyl-2-(pyridin-2-yl)pyrazolidin-1-yl)methanone] | 37 | 4.7 | 2900 | 78.51 | –
Cc1cc2nc(N)c3cnn(C)c3c2cc1C(=O)N1CC(C)CN1c1ncc(-c2cscn2)cc1F (stereo not drawn) [Example 488, (4-amino-1,7-dimethyl-1H-pyrazolo[4,3-c]quinolin-8-yl)(2-(3-fluoro-5-(thiazol-4-yl)pyridin-2-yl)-4-methylpyrazolidin-1-yl)methanone] | 25 | 5.3 | 531 | 21.24 | –
CCOc1ccc(N2CC(C)CN2C(=O)c2cc3c(cc2C)nc(N)c2cnn(C)c23)nn1 (stereo not drawn) [Example 385, (4-amino-1,7-dimethyl-1H-pyrazolo[4,3-c]quinolin-8-yl)(2-(6-ethoxypyridazin-3-yl)-4-methylpyrazolidin-1-yl)methanone] | 104 | 5.4 | 3770 | 36.22 | –
Cc1cc2nc(N)c3ccncc3c2cc1C(=O)N1CC(C)CN1c1ncccc1F (stereo not drawn) [Example 502, (5-amino-8-methylbenzo[C] [2,6]naphthyridin-9-yl)(2-(3-fluoropyridin-2-yl)-4-methylpyrazolidin-1-yl)methanone] | 140 | 5.2 | 1510 | 10.79 | –
Cc1cc2cc(C(=O)N(Cc3ccc(C4(F)CCC4)cn3)N(C)c3ncccn3)ccc2nc1N [Example 287, 2-amino-N-((5-(1-fluorocyclobutyl)pyridin-2-yl)methyl)-N',3-dimethyl-N'-(pyrimidin-2-yl)quinoline-6-carbohydrazide] | 113 | 2.2 | 2560 | 22.69 | –
[2H]C([2H])([2H])OC1CN(C(=O)c2cc3c(cc2C)nc(N)c2cnn(C)c23)N(c2ncccc2F)C1 (stereo not drawn) [Example 454, (4-amino-1,7-dimethyl-1H-pyrazolo[4,3-c]quinolin-8-yl)(2-(3-fluoropyridin-2-yl)-4-(methoxy-D3)pyrazolidin-1-yl)methanone] | 36 | 5.9 | 752 | 20.89 | –

Source: patent EP4745134A1 (Jiangsu Yahong Meditech Co., Ltd., priority 2023, dated 2025)
